Source: the supplement of paper PMC10307832

How the values were obtained:
Assay in all cases: relative viability (nuclei count vs DMSO), 5 days (fraction); higher = more cells survive
HCC-827 = test system: HCC-827
In short: (§1)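 Relative viability was taken as the ratio of nuclei in treated wells to nuclei in vehicle wells. Lung cancer cell lines in 1536-well plates received compounds by pin tool one day after seeding, either one drug alone or a fixed anchor-drug dose plus five library-drug doses (not always all listed) in √10 steps. Nuclei were counted on 4× images after 5 days of treatment, and values are medians of duplicate plates.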

NCI-H520 = test system: NCI-H520
In short: as §1

EMC-BAC-2 = test system: EMC-BAC-2
In short: as §1

ChaGo-K-1 = test system: ChaGo-K-1
In short: as §1

NCI-H1563 = test system: NCI-H1563
In short: as §1

NCI-H1944 = test system: NCI-H1944
In short: as §1

NCI-H2087 = test system: NCI-H2087
In short: as §1

NCI-H2405 = test system: NCI-H2405
In short: as §1

SK-MES-1 = test system: SK-MES-1
In short: as §1

NCI-H1355 = test system: NCI-H1355
In short: as §1

LCLC-97TM1 = test system: LCLC-97TM1
In short: as §1

NCI-H322M = test system: NCI-H322M
In short: as §1

NCI-H2085 = test system: NCI-H2085
In short: as §1

LCLC-103H = test system: LCLC-103H
In short: as §1

UMC-11 = test system: UMC-11
In short: as §1

NCI-H650 = test system: NCI-H650
In short: as §1

HCC-44 = test system: HCC-44
In short: as §1

EPLC-272H = test system: EPLC-272H
In short: as §1

NCI-H1651 = test system: NCI-H1651
In short: as §1

NCI-H1793 = test system: NCI-H1793
In short: as §1

H3255 = test system: H3255
In short: as §1

NCI-H1395 = test system: NCI-H1395
In short: as §1

NCI-H2023 = test system: NCI-H2023
In short: as §1

## NC(=O)Nc1cc(-c2cccc(F)c2)sc1C(=O)N[C@H]1CCCNC1 [AZD7762] + CS(=O)(=O)N1CCN(Cc2cc3nc(-c4cccc5[nH]ncc45)nc(N4CCOCC4)c3s2)CC1 [Pictilisib] (partner 1 µM)
HCC-827; first compound 0.01 µM
  relative viability: 1.36
HCC-827; first compound 0.03162 µM
  relative viability: 0.962
HCC-827; first compound 0.1 µM
  relative viability: 1.17
HCC-827; first compound 0.3162 µM
  relative viability: 1.21
HCC-827; first compound 1 µM
  relative viability: 0.682
NCI-H520; first compound 0.01 µM
  relative viability: 0.328
NCI-H520; first compound 0.03162 µM
  relative viability: 0.28
NCI-H520; first compound 0.1 µM
  relative viability: 0.253
NCI-H520; first compound 0.3162 µM
  relative viability: 0.216
NCI-H520; first compound 1 µM
  relative viability: 0.219
EMC-BAC-2; first compound 0.01 µM
  relative viability: 0.581
EMC-BAC-2; first compound 0.03162 µM
  relative viability: 0.576
EMC-BAC-2; first compound 0.1 µM
  relative viability: 0.574
EMC-BAC-2; first compound 0.3162 µM
  relative viability: 0.542
EMC-BAC-2; first compound 1 µM
  relative viability: 0.527
ChaGo-K-1; first compound 0.01 µM
  relative viability: 0.656
ChaGo-K-1; first compound 0.03162 µM
  relative viability: 0.815
ChaGo-K-1; first compound 0.1 µM
  relative viability: 0.846
ChaGo-K-1; first compound 0.3162 µM
  relative viability: 0.675
ChaGo-K-1; first compound 1 µM
  relative viability: 0.562
NCI-H1563; first compound 0.01 µM
  relative viability: 0.648
NCI-H1563; first compound 0.03162 µM
  relative viability: 0.629
NCI-H1563; first compound 0.1 µM
  relative viability: 0.539
NCI-H1563; first compound 0.3162 µM
  relative viability: 0.617
NCI-H1563; first compound 1 µM
  relative viability: 0.623
NCI-H1944; first compound 0.01 µM
  relative viability: 0.333
NCI-H1944; first compound 0.03162 µM
  relative viability: 0.395
NCI-H1944; first compound 0.1 µM
  relative viability: 0.4
NCI-H1944; first compound 0.3162 µM
  relative viability: 0.363
NCI-H1944; first compound 1 µM
  relative viability: 0.389
NCI-H2087; first compound 0.01 µM
  relative viability: 0.982
NCI-H2087; first compound 0.03162 µM
  relative viability: 0.902
NCI-H2087; first compound 0.1 µM
  relative viability: 1.23
NCI-H2087; first compound 0.3162 µM
  relative viability: 1.31
NCI-H2087; first compound 1 µM
  relative viability: 1.09
NCI-H2405; first compound 0.01 µM
  relative viability: 0.457
NCI-H2405; first compound 0.03162 µM
  relative viability: 0.559
NCI-H2405; first compound 0.1 µM
  relative viability: 0.382
NCI-H2405; first compound 0.3162 µM
  relative viability: 0.291
NCI-H2405; first compound 1 µM
  relative viability: 0.22
SK-MES-1; first compound 0.01 µM
  relative viability: 0.353
SK-MES-1; first compound 0.03162 µM
  relative viability: 0.322
SK-MES-1; first compound 0.1 µM
  relative viability: 0.358
SK-MES-1; first compound 0.3162 µM
  relative viability: 0.331
SK-MES-1; first compound 1 µM
  relative viability: 0.25
NCI-H1355; first compound 0.01 µM
  relative viability: 0.405
NCI-H1355; first compound 0.03162 µM
  relative viability: 0.428
NCI-H1355; first compound 0.1 µM
  relative viability: 0.44
NCI-H1355; first compound 0.3162 µM
  relative viability: 0.445
NCI-H1355; first compound 1 µM
  relative viability: 0.391
LCLC-97TM1; first compound 0.01 µM
  relative viability: 0.201
LCLC-97TM1; first compound 0.03162 µM
  relative viability: 0.201
LCLC-97TM1; first compound 0.1 µM
  relative viability: 0.277
LCLC-97TM1; first compound 0.3162 µM
  relative viability: 0.216
LCLC-97TM1; first compound 1 µM
  relative viability: 0.152
NCI-H322M; first compound 0.01 µM
  relative viability: 0.484
NCI-H322M; first compound 0.03162 µM
  relative viability: 0.552
NCI-H322M; first compound 0.1 µM
  relative viability: 0.502
NCI-H322M; first compound 0.3162 µM
  relative viability: 0.5
NCI-H322M; first compound 1 µM
  relative viability: 0.426
NCI-H2085; first compound 0.01 µM
  relative viability: 0.407
NCI-H2085; first compound 0.03162 µM
  relative viability: 0.507
NCI-H2085; first compound 0.1 µM
  relative viability: 0.486
NCI-H2085; first compound 0.3162 µM
  relative viability: 0.516
NCI-H2085; first compound 1 µM
  relative viability: 0.361
LCLC-103H; first compound 0.01 µM
  relative viability: 0.659
LCLC-103H; first compound 0.03162 µM
  relative viability: 0.609
LCLC-103H; first compound 0.1 µM
  relative viability: 0.574
LCLC-103H; first compound 0.3162 µM
  relative viability: 0.629
LCLC-103H; first compound 1 µM
  relative viability: 0.514
UMC-11; first compound 0.01 µM
  relative viability: 0.753
UMC-11; first compound 0.03162 µM
  relative viability: 0.768
UMC-11; first compound 0.1 µM
  relative viability: 0.848
UMC-11; first compound 0.3162 µM
  relative viability: 0.679
UMC-11; first compound 1 µM
  relative viability: 0.393
NCI-H650; first compound 0.01 µM
  relative viability: 0.906
NCI-H650; first compound 0.03162 µM
  relative viability: 0.854
NCI-H650; first compound 0.1 µM
  relative viability: 0.855
NCI-H650; first compound 0.3162 µM
  relative viability: 1
NCI-H650; first compound 1 µM
  relative viability: 0.839
HCC-44; first compound 0.01 µM
  relative viability: 0.642
HCC-44; first compound 0.03162 µM
  relative viability: 0.627
HCC-44; first compound 0.1 µM
  relative viability: 0.584
HCC-44; first compound 0.3162 µM
  relative viability: 0.612
HCC-44; first compound 1 µM
  relative viability: 0.556
EPLC-272H; first compound 0.01 µM
  relative viability: 0.309
EPLC-272H; first compound 0.03162 µM
  relative viability: 0.377
EPLC-272H; first compound 0.1 µM
  relative viability: 0.291
EPLC-272H; first compound 0.3162 µM
  relative viability: 0.316
EPLC-272H; first compound 1 µM
  relative viability: 0.247
NCI-H1651; first compound 0.01 µM
  relative viability: 0.755
NCI-H1651; first compound 0.03162 µM
  relative viability: 0.566
NCI-H1651; first compound 0.1 µM
  relative viability: 0.556
NCI-H1651; first compound 0.3162 µM
  relative viability: 0.457
NCI-H1651; first compound 1 µM
  relative viability: 0.226
NCI-H1793; first compound 0.01 µM
  relative viability: 0.388
NCI-H1793; first compound 0.03162 µM
  relative viability: 0.371
NCI-H1793; first compound 0.1 µM
  relative viability: 0.336
NCI-H1793; first compound 0.3162 µM
  relative viability: 0.278
NCI-H1793; first compound 1 µM
  relative viability: 0.224
H3255; first compound 0.01 µM
  relative viability: 0.527
H3255; first compound 0.03162 µM
  relative viability: 0.448
H3255; first compound 0.1 µM
  relative viability: 0.519
H3255; first compound 0.3162 µM
  relative viability: 0.514
H3255; first compound 1 µM
  relative viability: 0.418
NCI-H1395; first compound 0.01 µM
  relative viability: 0.663
NCI-H1395; first compound 0.03162 µM
  relative viability: 0.643
NCI-H1395; first compound 0.1 µM
  relative viability: 0.674
NCI-H1395; first compound 0.3162 µM
  relative viability: 0.514
NCI-H1395; first compound 1 µM
  relative viability: 0.403
NCI-H2023; first compound 0.01 µM
  relative viability: 0.228
NCI-H2023; first compound 0.03162 µM
  relative viability: 0.227
NCI-H2023; first compound 0.1 µM
  relative viability: 0.176
NCI-H2023; first compound 0.3162 µM
  relative viability: 0.11
NCI-H2023; first compound 1 µM
  relative viability: 0.091
